pIC50: −log10 of the molar value.
Tested on: MV-4-11 cells
Test: MV-4-11 (leukemia) cell proliferation assay (ATPlite)
Type: cell-based
Conditions: Homo sapiens, MV4-11, read-out: Inhibition of Cell Proliferation IC50, MV-4-11
Description: Compounds are assessed in a variety of cell based assays. For example BaF3 cells engineered with any of BCR-FMS, BCR-KIT, BCR-FLT3, BCR-NTRK1, BCR-NTRK2, and BCR-NTRK3, are used in cell proliferation assays to assess inhibitory activity of Fms, Kit, Flt-3, TrkA, TrkB, and TrkC, respectively. An MV-4-11 (leukemia) cell proliferation assay is used to assess inhibitory activity in Flt-3, and SKNSH (human neuroblastoma) cell proliferation assay is used to assess efficacy of Fms/Trk inhibitors. Additional cells may be assayed similarly to assess the efficacy of Fms/Trk inhibitors, such as MiaPaCa (human pancreatic cancer) and Capan-1 (human pancreatic carcinoma) cells. Reagent and assay conditions are as follows: • BaF3 cells: • Maintained in RPMI containing 10% FBS, 1% PenStrep, 1% NEAA, and 1% L-Glutamine, supplemented with 1 mg/mL G418 and 5% WEHI-CM (or recombinant murine IL-3). • Confluent cells are split 1:50 to 1:100 every 3-4 days. • MV-4-11 cells: • Maintained in Iscove's Modified Dulbecco's Medium containing 10% FBS. • Confluent cells are split 1:4 every 3-4 days. • SKNSH cells: RPMI containing 10% FBS. On day 1, cells are counted, then centrifuged in a conical tube for 5 minutes at 1000 rpm. The supernatant is removed and cells are re-suspended as follows: • BaF3: resuspend in growth media +1 mg/mL G418 (without WEHFIL-3) to 2×10^5 cells/mL. • MV-4-11: resuspend in growth media to 5×10^5 cells/mL. • SKNSH: resuspend in growth media to 2×10^4 cells/mL. The cells are plated (50 μL, 150 μL for SKNSH cells) in each well of a 96-well dish (Corning 3610) and incubated at 37° C. in 5% CO2 overnight, cells plated to a final concentration of cells as follows: • BaF3: 10,000 cells per well. • MV-4-11: 25,000 cells per well. • SKNSH: 3,000 cells per well. On day 2, compound at a maximum concentration of 5 mM is serially diluted 1:3 for a total of 8 point titration with DMSO as a control. A 1 μL aliquot of each dilution point is added to 249 μL growth media and 50 μL is added to a well containing cells, providing 10 μM compound for the maximum concentration point. The cells are incubated for 3 days at 37° C. in 5% CO2. For SKNSH cells, a 0.75 μL aliquot of appropriate dilution in DMSO is added to 150 μL of cells. On day 5, ATPlite 1 step Luminescence Assay System (Perkin Elmer #6016739) is brought to room temperature along with the cell cultures. ATPlite is added to each well as follows: • BaF3: 25 μL per well. • MV-4-11: 40 μL per well. • SKNSH: 20 μL per well. The cells are incubated at room temperature for 10 minutes, then luminescence is read on Safire reader. The measured luminescence correlates directly with cell number, such that the reading as a function of compound concentration is used to determine the IC50 value.
It is understood that the results of these assays may vary as assay conditions are varied. Inhibition levels determined under the conditions described herein represent a relative activity for the compounds tested under the specific conditions employed. The cell based assays are likely to show variability due to the complexity of the system and the sensitivity thereof to any changes in the assay conditions. […] Results for compounds that are tested and show substantially no inhibition below the highest tested concentration are represented as “-” in the tables below. In some instances, the compounds were not tested in all of the assays, or assay results were not valid, as indicated by NA in the tables below.

pIC50: > 5.00
Structure (SMILES): Fc1nc(NC2CCC(F)(F)CC2)ccc1Cc1c[nH]c2ncc(Cl)cc12 [Compound P-3013, [5-(5-Chloro-1H-pyrrolo[2,3-b]pyridin-3-ylmethyl)-6-fluoro-pyridin-2-yl]-(4,4-difluoro-cyclohexyl)-amine]
